# Measured values as given in ChEMBL document CHEMBL1158709, “Cytotoxic flavanones of Schizolaena hystrix from the Madagascar rainforest” (J Nat Prod, 2005).
# Test system: A2780
# Experiment: Cytotoxicity against human A2780 cells
# Format: functional, cell-based
row,Compound,IC50
1,CC(C)=CCC/C(C)=C/Cc1cc([C@@H]2CC(=O)c3c(cc(O)c(CC=C(C)C)c3O)O2)ccc1O [SCHIZOLAENONE A],10 µg/mL
2,CC(C)=CCC/C(C)=C/Cc1cc([C@@H]2CC(=O)c3c(cc(O)c(CC=C(C)C)c3O)O2)cc(O)c1O [SCHIZOLAENONE B],11 µg/mL
3,COc1ccc([C@@H]2CC(=O)c3c(cc(O)c(C/C=C(\C)CCC=C(C)C)c3O)O2)cc1,17 µg/mL
4,CC(C)=CCC/C(C)=C/Cc1c(O)cc2c(c1O)C(=O)C[C@@H](c1ccc(O)c(O)c1)O2 [NYMPHAEOL A],5.5 µg/mL
5,CC(C)=CCC/C(C)=C/Cc1c(O)cc2c(c1O)C(=O)C[C@@H](c1ccc(O)cc1)O2 [BONANNIONE A],12 µg/mL
6,CC(C)=CCC/C(C)=C/Cc1c(O)cc2c(c1O)C(=O)[C@H](O)[C@@H](c1ccc(O)cc1)O2 [BONANNIOL A],25 µg/mL
7,CC(C)=CCc1cc([C@@H]2CC(=O)c3c(cc(O)c(CC=C(C)C)c3O)O2)ccc1O [MACARANGAFLAVANONE B],16 µg/mL
